Test results from patent US11090304B2 (Amgen Inc., priority 2018, dated 2021).
Read-outs that look alike come from different tables or passages of the source.

Assays:
[1] = target: GDP-bound KRAS protein (aa 1-169), containing both G12C and C118A amino acid substitutions (Homo sapiens, UniProt P01116, C118A/G12C); test: Coupled nucleotide exchange assay (SOS-mediated, AlphaScreen); type: biochemical; settings: for Coupled exchange IC50 (5 min): 5 min compound pre-incubation; for Coupled exchange IC50 (2 h): 2 h compound pre-incubation
Sequence of GDP-bound KRAS protein (aa 1-169), containing both G12C and C118A amino acid substitutions (P01116 1-169 isoform P01116-2 G12C/C118A): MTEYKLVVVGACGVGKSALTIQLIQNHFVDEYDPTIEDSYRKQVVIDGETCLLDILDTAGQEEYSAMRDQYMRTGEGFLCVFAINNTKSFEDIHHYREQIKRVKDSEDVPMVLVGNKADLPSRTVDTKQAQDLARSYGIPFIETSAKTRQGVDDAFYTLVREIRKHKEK

[2] = test system: Phosphorylation of ERK1/2 in MIA PaCa-2 cells; test: Phospho-ERK1/2 MSD assay in MIA PaCa-2 cells; type: cell-based; settings: Homo sapiens
How it was run: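 IC50 comes from a 4-parameter logistic fit of MSD phospho-ERK1/2 signal in lysates. Before lysis, MIA PaCa-2 or A549 cells were exposed to titrated compound for 2 or 4 h at 37 °C, followed by a 10 min 10 ng/mL EGF stimulus.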

[3] = test system: Phosphorylation of ERK1/2 in A549 cells; test: Phospho-ERK1/2 MSD assay in A549 cells; type: cell-based; settings: Homo sapiens
Procedure: For compounds in Table 89, the following assay conditions were employed:
Phospho-ERK1/2 MSD Assay:
Sixteen hours prior to compound treatment, MIA PaCa-2 or A549 cells were seeded in 96-well cell culture plates at a density of 25,000 cells/well and incubated at 37° C., 5% CO2. A compound dose-response titration was diluted in growth media, added to appropriate wells of a cell culture plate, and then incubated at 37° C., 5% CO2 for 2 or 4 hours (see Table 15). Following compound treatment, cells were stimulated with 10 ng/mL EGF (Roche 11376454001) for 10 min, washed with ice-cold Dulbecco's phosphate-buffered saline, no Ca^2+ or Mg^2+ (ThermoFisher Scientific 14190144), and then lysed in RIPA buffer (50 mM Tris-HCl pH 7.5, 1% Igepal, 0.5% sodium deoxycholate, 150 mM NaCl, and 0.5% sodium dodecyl sulfate) containing protease inhibitors (Roche 4693132001) and phosphatase inhibitors (Roche 4906837001). Phosphorylation of ERK1/2 in compound-treated lysates was assayed using Phospho-ERK1/2 Whole Cell Lysate kits (Meso Scale Discovery K151DWD) according to the manufacturer's protocol. Assay plates were read on a Meso Scale Discovery Sector Imager 6000, and data were analyzed using a 4-parameter logistic model to calculate IC50 values.

[4] = MIA PaCa-2, 2 h, read-out: p-ERK IC50 (2 h; MIA PaCa-2), 2 h compound treatment
[5] = A549, 2 h, read-out: p-ERK IC50 (2 h; A549), 2 h compound treatment
[6] = MIA PaCa-2, 4 h, read-out: p-ERK IC50 (4 h; MIA PaCa-2), 4 h compound treatment
[7] = A549, 4 h, read-out: p-ERK IC50 (4 h; A549), 4 h compound treatment

SMILES	Coupled exchange IC50 (5 min) [1]	IC50 [2, 4] [nM]	IC50 [3, 5] [nM]	Coupled exchange IC50 (2 h) [1]	IC50 [2, 6] [nM]	IC50 [3, 7] [nM]
C=CC(=O)N1CCN(c2nc(=O)n(-c3c(C)ccnc3C(C)C)c3nc(-c4ccccc4F)c(Cl)nc23)[C@@H](C)C1 (single isomer, unassigned) [Example 111-1]	0.076 | nda μM	102	≥ 10000	–	–	–
C=CC(=O)N1CCN(c2nc(=O)n(-c3c(C)cccc3C)c3nc(-c4c(O)cccc4F)c(Cl)cc23)CC1 [Example 8-8, 6-chloro-1-(2,6-dimethylphenyl)-7-(2-fluoro-6-hydroxyphenyl)-4-(4-(2-propenoyl)-1-piperazinyl)pyrido[2,3-d]pyrimidin-2(1H)-one]	0.653 µM	327	–	117 nM	143	≥ 100000
C=CC(=O)N1CCN(c2nc(=O)n(-c3ccccc3C3CCC3)c3nc(-c4c(O)cccc4F)c(Cl)cc23)[C@@H](C)C1 [Example 54-10, 6-chloro-1-(2-cyclobutylphenyl)-7-(2-flnoro-6-hydroxyphenyl)-4-((2S)-2-methyl-4-(2-propenoyl)-1-piperazinyl) pyrido[2,3-d]pyrimidin-2(1H)-one]	0.185 | nda μM	182	≥ 10000	–	–	–
C=CC(=O)N1CCN(c2nc(=O)n(-c3ccccc3C3CCC3)c3nc(-c4ccccc4F)c(Cl)cc23)[C@@H](C)C1 [Example 54-12, 6-chloro-1-(2-cydobutyl-phenyl)-7-(2-fluorophenyl)-4-((2S)-2-methyl-4-(2-propenoyl)-1-piperazinyl) pyrido[2,3-d]pyrirnidin-2(1H)-one]	0.289 | nda μM	162	≥ 10000	–	–	–

The next lines start with the values.

Coupled exchange IC50 (5 min) [1]	IC50 [2, 4] [nM]	IC50 [3, 5] [nM]	Coupled exchange IC50 (2 h) [1]	IC50 [2, 6] [nM]	IC50 [3, 7] [nM]	SMILES
–	–	–	nda | 0.781 μM	8580	≥ 100000	C=CC(=O)N1CCN(c2nc(=O)n(C(CC)CC)c3nc(Cl)c(Cl)cc23)[C@@H](C)C1 [Example 54-3, 6,7-dichloro-4-((2S)-2-methyl-4-(2-propenoyl)-1-piperazinyl)-1-(3-pentanyl) pyrido[2,3-d]pyrimidin-2(1H)-one]
0.445 | nda μM	554	≥ 10000	–	–	–	C=CC(=O)N1CCN(c2nc(=O)n(CC3(C(F)(F)F)CC3)c3nc(-c4c(O)cccc4F)c(Cl)cc23)[C@@H](C)C1 [Example 54-5, 6-chloro-7-(2-fluoro-6-hydroxyphenyl)-4-((2S)-2-methyl-4-(2-propenoyl)-1-piperazinyl)-1-((1-(trifluoromethyl)cyclopropyl)methyl)pyrido [2,3-d]pyrimidin-2(1H)-one]
0.306 | nda μM	528	≥ 10000	–	–	–	C=CC(=O)N1CCN(c2nc(=O)n(CC3(C)CC3)c3nc(-c4c(O)cccc4F)c(Cl)cc23)[C@@H](C)C1 [Example 54-6, 6-chloro-7-(2-fluoro~ 6-hydroxyphenyl)-1-((1-methylcyclopropyl)methyl)-4-((2S)-2-methyl-4-(2-propenoyl)-1-piperazinyl) pyrido[2,3-d]pyrimidin-2(1H)-one]
0.147 | nda μM	86	≥ 10000	–	–	–	C=CC(=O)N1CCN(c2nc(=O)n(-c3cccnc3C(C)C)c3nc(-c4ccccc4F)c(Cl)cc23)[C@@H](C)C1 [Example 54-9, 6-chloro-7-(2-fluorophenyl)-4-((2S)-2-methyl-4-(2-propenoyl)-1-piperazinyl)-1-(2-(2-propanyl)-3-pyridinyl) pyrido[2,3-d]pyrimidin-2(1H)-one]
0.069 | nda μM	63	≥ 10000	–	–	–	C=CC(=O)N1CCN(c2nc(=O)n(-c3cccnc3C(C)C)c3nc(-c4c(O)cccc4F)c(Cl)cc23)[C@@H](C)C1 [Example 54-11, 6-chloro-7-(2-fluoro-6-hydroxyphenyl)-4-((2S)-2-methyl-4-(2-propenoyl)-1-piperazinyl)-1-(2-(2-propanyl)-3-pyridinyl) pyrido[2,3-d]pyrimidin-2(1H)-one]
